What all share (assay type): cell-based
In assay [1] the test system is human melanoma cell line WM-266-4. Description: In vitro pro-apoptotic activity (PARP cleavage western blot) in WM-266-4, example 2. The note with it: 100 nM, positive control, WM-266-4, example 2. The protocol: The characterization of the interaction between compound (I) and compound (II) was studied using western blotting method measuring the expression of cleaved PARP which allows to investigate apoptosis by detecting the cleavage of the PARP protein.
(§1) The human melanoma WM-266-4 cell line was purchased at ATCC (Ref number CRL-1676 Batch 3272826). The WM-266-4 cells were cultured in RPMI1640 medium supplemented with 10% FBS and 2 mM L-Glutamine.
They were diluted following a 10 fold step dilution in DMSO in order to obtain a 1 mM solution. Then each solution at 10 mM and 1 mM was diluted 50-fold in culture medium containing 10% serum before being added onto cells with a 20-fold dilution factor to reach final concentrations of 10,000 nM and 1,000 nM. The final DMSO concentration was 0.1% in controls and in all treated wells.
WM-266-4 cells were seeded into 6-well microplates at 1 000 000 cells per well, in complete culture medium and incubated at 37° C., 5% CO2, overnight.
At the end of cell treatment period, adherent cells as well as cells in the cell culture supernatant were lysed for the preparation of the proteins. Cells were lysed in a lysis buffer containing Hepes 50 mM, NaCl 150 mM, Glycerol 10%, Triton 1%, pH=7.5, adding extemporaneously a cocktail of protease and phosphatase inhibitors diluted 100 fold. Protein concentrations in each sample were determined using microBCA technique according to manufacturer's instructions. Western blotting was performed loading 20 μg of proteins in each gel well, and according to the operating procedure. […] After western blotting revelation according to the operating procedure instructions, luminescence was read using FujiFilm (Ray Test) apparatus.
This instrument measures the total signal of luminescence obtained on Fujifilm machine (AU) for each selected band. Then, it subtracts the background value (BG) proportional to the size of the selected band or Area. The background is calculated from a band taken on the specific background of the western blot, to obtain the specific signal or (AU−BG) for each band. The calculation of the fold induction is performed for each treatment with compound or combination of compounds using the following formula:
Fold Induction=((AU−BG)t/(AU−BG)st)*100

Assay [2] has as its system human melanoma cell line A2058. Description: In vitro pro-apoptotic activity (PARP cleavage western blot) in A2058, example 4. The protocol:
(§2) The characterization of the interaction between compound (I) and compound (II) was studied using western blotting method which allows investigating apoptosis by detecting the cleavage of the PARP protein.
(§3) The human melanoma A2058 cell line was purchased at ATCC (Ref number CRL-11147 Batch 5074651). The A2058 cells were cultured in DMEM High glucose medium supplemented with 10% FBS and 2 mM L-Glutamine.
(§4) Cell treatment, Western Blot experiment and calculation of apoptosis fold induction were performed according to the material and method described in example 2.
Background: In western blotting, separated proteins are transferred to a membrane and probed.

In assay [3] the test system is human melanoma cell line WM-266-4. Description: In vitro pro-apoptotic activity (PARP cleavage) in WM-266-4 in a concentration-dependent manner, example 5. The settings on record: single agent 100 nM, WM-266-4, example 5. The protocol:
as §2, §1
They were diluted following two 10-fold step dilution in DMSO in order to obtain a 1 mM solution and a 0.1 mM solution Then each solution at 10 mM, 1 mM or 0.1 mM was diluted 50-fold in culture medium containing 10% serum before being added onto cells with a 20-fold dilution factor to reach final concentrations of 10,000 nM, 1,000 nM and 100 nM. The final DMSO concentration was 0.1% in controls and in all treated wells.
as §4

Assay [4] has as its system human melanoma cell line A2058. Description: In vitro pro-apoptotic activity (PARP cleavage) in A2058 in a concentration-dependent manner, example 6. The settings on record: single agent 100 nM, A2058, example 6. The protocol:
as §2, §3, §4

SMILES strings stand for the structures.

For `CC(=O)O[C@@]12CO[C@@H]1C[C@H](O)[C@@]1(C)C(=O)[C@H](O)C3=C(C)[C@@H](OC(=O)[C@H](O)[C@@H](NC(=O)OC(C)(C)C)c4ccccc4)C[C@@](O)([C@@H](OC(=O)c4ccccc4)[C@H]21)C3(C)C` [Taxotere], the “PARP cleavage signal (AU-BG)” value is recorded as 2054900 AU-BG in assay [1]; 3563893 AU-BG in assay [2] (100 nM, positive control, A2058, example 4); 399272 AU-BG in assay [3]; 14448019 AU-BG in assay [4]. The fold induction at 0.1 µM in assay [1] (Homo sapiens) came out at 2.88; in assay [2] (Homo sapiens, A2058, read-out: Fold induction of PARP cleavage) it was 1.66; in assay [3] (Homo sapiens), 1.56; in assay [4] (Homo sapiens), 6.79.

For the origin of these results see patent publication US20160030438A1, “ANTI-TUMORAL COMPOSITION COMPRISING A PI3KBETA INHIBITOR AND A RAF INHIBITOR, TO OVERCOME CANCER CELLS RESISTANCE” (SANOFI, priority 2013, published 2016).
